Measured values reported in patent US8563514B2, “Peptides and pharmaceutical compositions for treating connective tissue” (Metamorefix, priority 2007, dated 2013).
“Also recorded” adds a separate entry of the source.

How the values were obtained:
[1] = system: human foreskin fibrobalsts (FF1); assay: Cell attachment assay in monolayers (peptide-coated Sepharose beads), FF1; format: cell-based; settings: for cell binding activity at the lower dose (words): 6 mg peptide/ml compared with 12 mg/ml; for time to saturated attachment: Conclusions b109, concentration and cell type not stated; for Nomarsky optics microscopy of peptide coated beads attached to FF1 (observation): 3 days to 3 weeks of incubation; for activity in comparison with the positive control PreC-gamma: FIG. 3b, cell type not stated
Protocol: (§1) 100 mg of dried CNBr-Sepharose Beads (yields 350 μl of swollen Sepharose Beads—gel) was introduced into a disposable polystyrene mini-column (FIG. 1), appropriate for the preparation of a 0.5-2 ml gel filtration column (Pierce, Prod #29920). The lower part of the columns is blocked by a thick glass filter and a stopper.
(§2) 3-4 ml total volume of HCl solution (1 mM) was added to the column, and the liquid was forced to flow under vacuum pressure through the gel. This process was repeated 5 times. The final aliquot of HCl was aspirated until cracks appeared in the gel cake. 2-3 ml aliquots of coupling buffer were immediately added to the washed beads and aspirated. This step was repeated 4-5 times. The high pH hydrolyzes and opens the active groups.
(§3) A peptide solution in coupling buffer prepared as above was immediately added to the activated SEPHAROSE BEADS Sepharose beads were used to fixate the peptides for all in-vitro assays in the column to a final binding of 6 mg peptide per ml SEPHAROSE BEADS gel. The column was closed and shaken overnight at 4° C. very gently to avoid mechanical breakage of SEPHAROSE BEADS. The bottom cap of the column was removed and the solution of ligand/buffer was collected as the Sepharose Beads settled on the filter. The OD280 of the collected buffer was checked to determine the concentration of uncoupled peptide. The gel was washed/aspirated with 5 volumes (˜2 ml) of coupling buffer and gently mixed. Any remaining active groups on the gel were blocked with blocking buffer for 2 hours at room temperature or overnight at 4° C. The Sepharose Beads gel with peptides was then washed by 2 cycles each of 5 gel volumes of: • a. 0.1 M Acetate buffer • b. Coupling buffer • c. Storing buffer: azide-coupling buffer: coupling buffer containing 0.1% NaN3 (final concentration)
(§4) The tested peptides (Table 1) were coupled to Sepharose Beads at two concentrations: 6 and 12 mg/ml Sepharose Beads. Sepharose Beads that underwent the coupling procedure without peptide addition (“naked Sepharose Beads”) served as a negative control (referred to herein as “Sepharose Beads—blank”). A cell binding assay was performed with 2 normal cell types: bovine aortal endothelial cells (BAEC) and human foreskin fibrobalsts (FF1). Sepharose Beads were added to 12 well culture plates with sub-confluent monolayer of the cultured cells (100-300 beads were added to each well). The fraction of Sepharose Beads attached to the monolayer was monitored at different times.

[2] = system: bovine aortal endothelial cells (BAEC); assay: Cell attachment assay in monolayers (peptide-coated Sepharose beads), BAEC; format: cell-based; settings: for cell binding activity at the lower dose (words): BAEC monolayer, 6 mg peptide/ml compared with 12 mg/ml; for Nomarsky optics microscopy of peptide coated beads attached to BAEC (observation): 3 weeks of incubation; for overall activity at longer incubation times: microscopy, statement follows FF1 and BAEC paragraphs
Protocol: as §1, §2, §3, §4

FF1 in suspension = assay: Cell attachment assay in cell suspensions (MTS assay); format: cell-based, human; settings: followed over days
From the text: Attachment of FF1 in suspension to peptides bound to sepharose beads was followed using the MTS assay. The MTS assay uses tetrazolium, which is taken up by viable cells and converted into formazan, which has a light absorption peak at 492 nm. The light absorbance at 492 (OD492) is directly proportional to the number of the living cells attached to the beads. Calibration curves were used to transform the OD492 readings into cell number, […]

FF1 = assay: Toxicity assay for the peptides (MTS cell survival), FF1; format: cell-based, human
Protocol: (§5) A toxicity assay was done to determine the toxicity of the peptides tested to either one of the cell lines used. 15×10^3 cells (FF1 or BAEC) were seeded in 96 well plastic plates. After an overnight incubation, increasing concentrations of peptides in the range of 0.1-300 μg/ml were added to the wells. Cell survival was checked by the MTS assay after 2 and 5 days and normalized to the cell number of the controls (no peptide).

BAEC = assay: Toxicity assay for the peptides (MTS cell survival), BAEC; format: cell-based, bovine
Protocol: as §5

[3] = FF1 monolayer, 6 mg peptide/ml Sepharose beads
[4] = FF1, FIG. 3a, peptide concentration not given
[5] = high concentrations (>100 μg/ml), 5 days
[6] = very high concentrations (>100 μg/ml), prolonged exposure (5 days)

C-Fic-a-K: peptide having the sequence KGYKYSYKVSEMKVRPAK (SEQ ID NO: 4) (listed as Homo sapiens)
cell binding (extent reached) [1, 3]: 100%

C-Fic: peptide having the sequence KGYNYSYKSEMKVRPA (SEQ ID NO: 1); subsequence of human ficolin (listed as Homo sapiens)
cell binding activity at the lower dose (words) [2]: completely looses reactivity
cell binding activity at the lower dose (words) ([2]; listed as C-fic): did not attach; also recorded: some activity
extent of cell binding ([2]; BAEC, 6 mg peptide/ml, after 96 hours of incubation): about 30%
extent of cell binding ([1]; FF1, 6 mg peptide/ml, after 96 hours of incubation): about 30%
cell binding activity at the lower dose (words) ([1]; FF1 monolayer): no reactivity
cell binding activity at the lower dose (words) ([1]; FF1 monolayer, listed as C-fic): did not attach; also recorded: looses its activity; also recorded: inactive
cell binding (extent reached) ([1]; FF1 monolayer, 12 mg peptide/ml, up to 150 hours): 100%

C-M-Fic2: peptide having the sequence KGYKYSYKGGWTVFQRRMDGSVDFYR (SEQ ID NO: 8) (listed as Homo sapiens)
cell binding (extent reached) [1, 4]: 100%
kinetic profile of cell binding [1, 4]: good kinetic profile of cell binding (fast attachment)

C-M-Fic2K: peptide having the sequence KGYKYSYKGGWTVFQRRMDGSVDFYRK (SEQ ID NO: 6) (listed as Homo sapiens)
cell binding (extent reached) [1, 4]: 100%
kinetic profile of cell binding [1, 4]: good kinetic profile of cell binding (fast attachment)

C-M-Fic-a-K: peptide having the sequence KGYKYSYKVSEMKFQRRMDGSVDFYRK (SEQ ID NO: 7) (listed as Homo sapiens)
rate / kinetics of cell binding compared with positive control PreC ([1]; FF1 monolayer, 6 mg peptide/ml): accelerated the kinetics of cell binding

C-M-Fic: peptide having the sequence KGYNYSYKVSEMKFQRRVDGSVDFYRK (SEQ ID NO: 3) (listed as Homo sapiens)
cell binding activity at the lower dose (words) [2]: slower rate at the lower concentration
Nomarsky optics microscopy of peptide coated beads attached to BAEC (observation) ([2]; BAEC): formation of small tubes
overall activity at longer incubation times [2]: also active
attachment of FF1 cells in suspension to coated sepharose beads over time (words) (FF1 in suspension; listed as C-M-fic): an increase in cell number is detected after the first day
attachment of FF1 cells in suspension to coated sepharose beads over time (words) (FF1 in suspension; listed as CM-fic): stable for at least three days
cell survival, normalized to controls (FF1; [5]): about 50%
toxicity (FF1; [6]): some minor toxicity
cell survival, normalized to controls (BAEC; [5]): about 50%
toxicity (BAEC; [6]): some minor toxicity
time to saturated attachment [1]: 72 h
Nomarsky optics microscopy of peptide coated beads attached to FF1 (observation) ([1]; FF1): aggregates of cells and beads formed
time to reach 100% / saturated cell binding ([1]; FF1 monolayer, 6 mg peptide/ml): 96 h
cell binding (extent reached) [1, 3]: 100%
cell binding activity at the lower dose (words) ([1]; FF1 monolayer): strongly affected by the decrease
cell binding activity at the lower dose (words) ([1]; FF1 monolayer, listed as C-M-fic): strongly affected by the lowerdose
time to reach 100% / saturated cell binding ([1]; FF1 monolayer, 6 mg peptide/ml, listed as C-M-fic): ≤ 96 h
rate of cell binding compared to the lower concentration ([1]; FF1 monolayer, 12 mg peptide/ml): slightly faster cell binding
time to reach 100% cell binding ([1]; FF1 monolayer, higher dose (12 mg/ml)): 20 h

M-Fic-K: peptide having the sequence GGWTVFQRRMDGSVDFYRK (SEQ ID NO: 5) (listed as Homo sapiens)
activity in comparison with the positive control PreC-gamma ([1]; 6 mg peptide/ml): dramatic change in activity

M-Fic: peptide having the sequence GGWTVFQRRVDGSVDFYRK (SEQ ID NO: 2) (listed as Homo sapiens)
cell binding activity at the lower dose (words) [2]: slight decrease
Nomarsky optics microscopy of peptide coated beads attached to BAEC (observation) ([2]; BAEC): formation of small tubes
overall activity at longer incubation times [2]: highest activity
time to saturated attachment [1]: 72 h
Nomarsky optics microscopy of peptide coated beads attached to FF1 (observation) ([1]; FF1): aggregates of cells and beads formed
time to reach 100% / saturated cell binding ([1]; FF1 monolayer, 6 mg peptide/ml): ≤ 24 h
cell binding activity at the lower dose (words) ([1]; FF1 monolayer): retains its activity
cell binding activity at the lower dose (words) ([1]; FF1 monolayer, listed as M-fic): retain most of its activity
activity in comparison with the positive control PreC-gamma ([1]; 6 mg peptide/ml): initially inferior to the positive control

PreC: positive control peptide KTRWYSMKKTTMKIIPFNR (SEQ ID NO: 10) (listed as Homo sapiens) [reference compound]
cell binding (extent reached) [1, 3]: 100%
